Measurements reported in paper PMC7570852, “Ruthenium(II)/(III) DMSO-Based Complexes of 2-Aminophenyl Benzimidazole with In Vitro and In Vivo Anticancer Activity” (Molecules, 2020).
Converted amounts (≈) assume the structure as drawn. “And” between values parts separate entries of the source, which are not always exact repeats. Equal entries are not always repeated. Where two headings read alike, the source gives them in different places.

Experiments:
[1] = system: human breast cancer (MCF7) cells; assay: MTT cell viability assay, MCF7; type: cell-based; conditions: for IC50: read-out: IC50 MCF-7
Protocol: (§1) The cytotoxic effect of the Hapbim ligand and its complexes (1) and (2) on human breast cancer (MCF7), human colorectal cancer (Caco2), and human normal liver (THLE-2) cell lines was evaluated by the MTT assay. The cells were cultured in a 96-well plate (1 × 10^4 cells/well, 100 μL/well) containing DMEM medium provided with 10% fetal bovine serum, and 1% penicillin/streptomycin. Then, the cells were incubated at 37 °C for 24 h in a CO2 incubator under 5% CO2, 95% air until reaching a confluence of 70–80%. A 20 μL volume of each compound at different concentrations (from 5 to 400 μM for the cancer cell and from 600 to 1000 μM for the normal cells) was added and the cells were re-incubated for a further 24 h. After the incubation period, the cells were incubated again with 5 mg/mL of MTT for 4 h and then the medium was replaced with 100 μL DMSO and vortexed for 20 min. Finally, the absorbance was recorded at 570 nm using the microplate reader. […] To calculate the cell inhibition percentage, the following equation was used:% Cell inhibition = 100 − % cell viability ((At − Ab)/(Ac − Ab)) × 100%)(4) where At is the absorbance value of tested compound; Ab is the absorbance value of blank; Ac is the absorbance value of the control.

[2] = system: human colorectal cancer (Caco2) cells; assay: MTT cell viability assay, Caco2; type: cell-based; conditions: for Therapeutic index: IC50 of THLE-2 cell/IC50 of Caco2: in vitro
Protocol: as §1

[3] = system: Ehrlich ascites carcinoma (EAC) cells; design: method as in PMID 28599251; conditions: literature comparison; cited from earlier work
CT DNA (EB-DNA adduct) = assay: Ethidium bromide (EB-DNA) competitive fluorescence assay; type: binding, calf; conditions: [DNA] = [EB] = 5 μM
Protocol: The binding affinity of the metal complexes towards CT DNA was evaluated using competitive fluorescence studies. CT DNA pretreated with ethidium bromide (EB) ([DNA] = [EB] = 5 μM) in Tris-HCl/NaCl buffer (pH = 7.2) was incubated with the complexes in concentrations of 0–90 μM. […] The quenching of EB-DNA adduct fluorescence was followed by monitoring the emission spectra in the wavelength range of 530–650 nm. Upon addition of the metal complexes to the EB-DNA adduct, the quenching binding constant (Kq) at λ = 585 nm is determined from the Stern-Volmer Equation (2):I0/I = 1 + Kq[Q](2) where I0 and I are the fluorescence intensities of EB-DNA in the […] of the metal complexes, respectively, [Q] is the concentration of the tested compounds, and Kq is the quenching constant calculated from the slope of the straight line obtained from plotting Io/I vs. [Q]. In addition, the apparent binding constant can be calculated from Equation (3):KEB[EB] = Kapp[Q](3) where KEB = 1 × 10^7 M^−1 [EB] is the ethidium bromide concentration (5 μM) and [Q] is the concentration of the quencher that provides a 50% intensity reduction of the initial EB-DNA adduct.

[4] = Solution stability by UV-Vis spectroscopy; type: physicochemical; conditions: 4% DMSO, 96% PBS, pH 7.4, over 24 h
Protocol: Stability studies of complexes (1) and (2) were carried out by UV-Vis spectroscopy in the 200–900 nm range. […] The electronic spectra for the solutions were measured over 24 h.

Cyclic voltammetry = type: physicochemical; conditions: 10^−3 M in CH2Cl2/DMSO, 0.1 M (Bu4N)PF6, scan rate 50 mVs^−1
Protocol: Elemental analyses (C, H, N) were performed by the Microanalysis unit in the Department of Chemistry at Simon Fraser University. Infrared spectra (FTIR) were performed on a JASCO 4100 FTIR spectrophotometer in the 4000–400 cm^−1 range using a KBr disc. NMR (^1H and ^13C) spectra were recorded in DMSO-d6 solvent using a Bruker 400 MHz instrument. The 2D NMR analysis (^1H–^1H COSY) was performed on a Jeol 500 MHz NMR, at Mansoura University. ESI/APCI HRMS data were acquired on a Thermo Scientific Exactive Plus Orbitrap mass spectrometer. Electronic spectra (in DMSO, 200–900 nm) were measured on a JASCO 630 V spectrophotometer. Emission spectra of the complexes were measured on a Jenway model 6285 spectrofluorimeter for excitation and emission spectra, 200–700 nm. The magnetic susceptibility of the complexes was measured on a Johnson Matthey magnetic susceptibility balance. […] A microplate reader (StatFax-2100, Awareness Technology, Inc., Palm City, FA, USA), Attune flow cytometer (Applied Biosystems, Foster City, CA, USA), Quawell nanodrop Q5000 (San Jose, CA, USA), StepOnePlus real time PCR system (Applied Biosystems, Foster City, CA, USA), and CO2 incubator (NuAire In-Vitro Cell, Plymouth, MN, USA) were used in biological studies.

With `N.N.[Cl][Pt][Cl]` [Cisplatin, reference compound] the “IC50 MCF-7” value ([1]; 24 h) was 22 ± 1 µg/mL and the IC50 ([1]; 24 h) was 73 ± 5 µM.
In the case of `Nc1ccccc1-c1nc2ccccc2[nH]1` [Hapbim, 2-aminophenyl benzimidazole], the IC50 ([1]; Homo sapiens, MCF7, 24 h) is reported as 61 µg/mL and 290 µM, the IC50 ([2]; Homo sapiens, Caco-2, MTT, 24 h) is reported as 80 µg/mL and 380 µM and the “Therapeutic index: IC50 of THLE-2 cell/IC50 of Caco2” value [2] is reported as 14.2.
For `CN(Cc1cnc2nc(N)nc(N)c2n1)c1ccc(C(=O)N[C@@H](CCC(=O)O)C(=O)O)cc1` [methotrexate], the “IC50 against EAC cells” value [3] is listed as 98 ± 2 µg/mL (≈ 216 µM).
In the case of [Ru(II)Cl2(DMSO)2(Hapbim)] [(1)], the “Kapp (apparent binding constant)” value (CT DNA (EB-DNA adduct); KEB = 1 × 10^7 M^−1) is reported as 1.08 ± 0.11 × 10^7 M^−1, the “Kq (quenching constant)” value (CT DNA (EB-DNA adduct); Stern-Volmer, 585 nm) is reported as 1.96 ± 0.04 × 10^3 M^−1 and the “IC50 MCF-7” value ([1]; 24 h) is reported as 170 ± 10 µg/mL. The IC50 ([1]; 24 h) was 320 ± 20 µM, the IC50 ([2]; MTT, 24 h) was 290 ± 20 µM and the “IC50 Caco2” value ([2]; MTT, 24 h) was 155 ± 9 µg/mL. For the same compound, the “Therapeutic index: IC50 of THLE-2 cell/IC50 of Caco2” value [2] was 6.4, the “solution stability (UV-Vis spectral change)” value [4] was “remain relatively unchanged over the first two hours” and the “E1/2 (Ru(II)/Ru(III) redox couple)” value (Cyclic voltammetry) was 615 mV.
